Structures can show the parent of a compound that is named as a salt. Where two headings read alike, the source gives them in different places.
Tests used:
[1] = target: T1, human CYP2D6 (Homo sapiens, UniProt P10635); experiment: biochemical; conditions: for AC50: CYP2D6 AC50 (half-maximal activity concentration)
[2] = target: T2, human CYP1A2 (Homo sapiens, UniProt P05177); experiment: biochemical; conditions: for AC50: CYP1A2 AC50 (half-maximal activity concentration)
T2 sequence (P05177 1-516): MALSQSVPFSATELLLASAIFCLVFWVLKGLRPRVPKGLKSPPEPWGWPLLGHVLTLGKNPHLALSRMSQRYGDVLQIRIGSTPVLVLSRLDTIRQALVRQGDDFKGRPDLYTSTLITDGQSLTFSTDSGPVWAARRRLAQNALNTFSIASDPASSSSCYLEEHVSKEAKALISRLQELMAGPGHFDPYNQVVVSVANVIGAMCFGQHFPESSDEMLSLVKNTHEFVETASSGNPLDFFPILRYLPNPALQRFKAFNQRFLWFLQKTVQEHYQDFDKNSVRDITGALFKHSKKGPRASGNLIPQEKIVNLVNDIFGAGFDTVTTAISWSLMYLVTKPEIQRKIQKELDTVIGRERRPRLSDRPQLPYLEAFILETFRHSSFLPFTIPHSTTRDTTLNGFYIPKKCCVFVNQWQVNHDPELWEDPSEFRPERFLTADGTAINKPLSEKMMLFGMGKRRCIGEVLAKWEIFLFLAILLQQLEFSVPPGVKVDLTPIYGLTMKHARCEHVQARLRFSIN

[3] = target: T3, human CYP2C9 (Homo sapiens, UniProt P11712)
[4] = target: Photinus pyralis (firefly) luciferase (Photinus pyralis, UniProt P08659); experiment: biochemical; format: biochemical
[5] = target: T2, human CYP1A2; conditions: for CYP1A2 Efficacy (in parenthesis): human
[6] = target: T4, CYP3A4 (Homo sapiens, UniProt P08684); experiment: biochemical; conditions: for IC50: CYP3A4 IC50 (half-maximal inhibitory concentration); for AC50: CYP3A4 AC50 (half-maximal activity concentration)
[7] = target: T1, human CYP2D6; conditions: for CYP2D6 Efficacy (in parenthesis): human
[8] = target: T5, human CYP2C19 (Homo sapiens, UniProt P33261); conditions: for CYP2C19 Efficacy (in parenthesis): human
[9] = target: T4, CYP3A4
[10] = target: T3, human CYP2C9; experiment: biochemical; conditions: for AC50: CYP2C9 AC50 (half-maximal activity concentration)
[11] = target: T5, human CYP2C19; experiment: biochemical; conditions: for AC50: CYP2C19 AC50 (half-maximal activity concentration)
[12] = CYP2D6 IC50 (half-maximal inhibitory concentration)
[13] = CYP1A2 IC50 (half-maximal inhibitory concentration)
[14] = CYP2C9 IC50 (half-maximal inhibitory concentration)
[15] = CYP2C19 IC50 (half-maximal inhibitory concentration)

T1 sequence (P10635 whole entry): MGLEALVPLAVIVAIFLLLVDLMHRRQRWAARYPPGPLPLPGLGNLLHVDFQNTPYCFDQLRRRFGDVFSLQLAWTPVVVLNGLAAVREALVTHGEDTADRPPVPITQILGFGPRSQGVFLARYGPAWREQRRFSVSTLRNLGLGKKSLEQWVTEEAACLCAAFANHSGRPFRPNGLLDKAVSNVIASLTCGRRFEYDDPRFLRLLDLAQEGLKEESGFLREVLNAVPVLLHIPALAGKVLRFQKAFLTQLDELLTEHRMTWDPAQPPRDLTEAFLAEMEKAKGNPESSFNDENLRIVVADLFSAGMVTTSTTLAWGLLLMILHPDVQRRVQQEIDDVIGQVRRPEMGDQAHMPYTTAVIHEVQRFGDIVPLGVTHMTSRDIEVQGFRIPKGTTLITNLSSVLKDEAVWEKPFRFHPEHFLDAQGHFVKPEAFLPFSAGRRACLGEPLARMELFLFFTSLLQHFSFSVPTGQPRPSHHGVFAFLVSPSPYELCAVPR
T4 sequence (P08684 whole entry): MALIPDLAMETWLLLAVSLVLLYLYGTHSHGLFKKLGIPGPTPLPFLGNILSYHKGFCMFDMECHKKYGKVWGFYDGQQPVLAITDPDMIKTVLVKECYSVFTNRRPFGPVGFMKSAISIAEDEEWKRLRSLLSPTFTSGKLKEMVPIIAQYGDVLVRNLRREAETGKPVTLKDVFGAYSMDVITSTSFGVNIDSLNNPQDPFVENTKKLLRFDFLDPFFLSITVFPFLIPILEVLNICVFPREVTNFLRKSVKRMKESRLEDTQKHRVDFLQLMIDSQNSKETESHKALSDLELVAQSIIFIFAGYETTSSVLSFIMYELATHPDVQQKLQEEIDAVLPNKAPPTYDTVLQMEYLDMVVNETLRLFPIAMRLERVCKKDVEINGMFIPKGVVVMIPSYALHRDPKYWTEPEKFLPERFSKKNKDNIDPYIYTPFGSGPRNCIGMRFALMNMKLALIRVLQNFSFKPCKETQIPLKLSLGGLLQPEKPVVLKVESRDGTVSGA
T5 sequence (P33261 whole entry): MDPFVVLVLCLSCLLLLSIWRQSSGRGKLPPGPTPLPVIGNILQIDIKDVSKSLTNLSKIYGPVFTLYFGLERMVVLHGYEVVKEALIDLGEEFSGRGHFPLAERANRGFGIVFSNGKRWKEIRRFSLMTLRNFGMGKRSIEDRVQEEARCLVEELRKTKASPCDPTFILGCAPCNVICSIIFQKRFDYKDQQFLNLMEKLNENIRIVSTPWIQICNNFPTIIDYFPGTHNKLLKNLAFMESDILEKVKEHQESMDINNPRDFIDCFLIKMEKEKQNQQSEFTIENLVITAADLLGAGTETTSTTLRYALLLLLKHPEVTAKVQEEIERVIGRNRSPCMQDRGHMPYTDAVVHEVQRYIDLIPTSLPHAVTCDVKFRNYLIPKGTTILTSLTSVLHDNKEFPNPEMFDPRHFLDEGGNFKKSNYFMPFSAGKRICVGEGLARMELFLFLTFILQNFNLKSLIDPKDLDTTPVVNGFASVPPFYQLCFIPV
Chain of Photinus pyralis (firefly) luciferase (P08659 whole entry): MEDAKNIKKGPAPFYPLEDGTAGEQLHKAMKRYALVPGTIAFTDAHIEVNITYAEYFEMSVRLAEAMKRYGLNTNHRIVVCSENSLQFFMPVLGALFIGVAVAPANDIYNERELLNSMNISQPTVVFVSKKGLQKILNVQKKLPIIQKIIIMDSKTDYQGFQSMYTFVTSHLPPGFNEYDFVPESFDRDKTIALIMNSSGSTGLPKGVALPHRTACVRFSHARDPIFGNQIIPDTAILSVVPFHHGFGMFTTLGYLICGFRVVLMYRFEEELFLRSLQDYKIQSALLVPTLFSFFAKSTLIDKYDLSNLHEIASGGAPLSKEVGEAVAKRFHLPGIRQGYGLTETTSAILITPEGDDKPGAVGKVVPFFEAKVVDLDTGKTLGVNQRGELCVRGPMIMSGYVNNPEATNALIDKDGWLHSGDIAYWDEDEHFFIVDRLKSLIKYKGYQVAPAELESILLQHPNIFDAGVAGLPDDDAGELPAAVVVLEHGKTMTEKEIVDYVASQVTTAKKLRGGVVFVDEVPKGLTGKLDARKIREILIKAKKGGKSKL
T3 sequence (P11712 whole entry): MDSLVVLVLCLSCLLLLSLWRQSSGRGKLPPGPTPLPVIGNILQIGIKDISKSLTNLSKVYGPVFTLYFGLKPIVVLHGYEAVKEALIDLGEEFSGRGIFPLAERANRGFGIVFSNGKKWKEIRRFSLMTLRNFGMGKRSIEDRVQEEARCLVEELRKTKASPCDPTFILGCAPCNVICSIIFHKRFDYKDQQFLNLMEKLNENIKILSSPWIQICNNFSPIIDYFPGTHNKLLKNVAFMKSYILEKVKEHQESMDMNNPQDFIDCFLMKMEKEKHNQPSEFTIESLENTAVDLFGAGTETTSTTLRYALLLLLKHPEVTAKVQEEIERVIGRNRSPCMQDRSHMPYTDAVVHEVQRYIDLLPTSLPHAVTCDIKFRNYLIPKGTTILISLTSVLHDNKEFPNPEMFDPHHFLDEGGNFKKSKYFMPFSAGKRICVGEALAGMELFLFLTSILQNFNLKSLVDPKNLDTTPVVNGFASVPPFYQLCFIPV

## COc1c2ccoc2cc2oc(=O)ccc12 [5-Methoxypsoralen]
[1]; [12]
  IC50: 0.1 µM
[2]; [13]
  IC50: 0.28 µM
[3]; human
  CYP2C9 Efficacy (in parenthesis): 2.43 ± 0.16 (-105 ± 2) %
[4]
  Luciferase IC50 (half-maximal inhibitory concentration): Inactive
[5]
  CYP1A2 Efficacy (in parenthesis): 0.28 ± 0.03 (-96 ± 3) %
[6]
  IC50: 9.16 µM
[7]
  CYP2D6 Efficacy (in parenthesis): 0.1 ± 0.02 (11 ± 2) %
[8]
  CYP2C19 Efficacy (in parenthesis): 10.35 ± 3.33 (-151 ± 18) %
[9]
  CYP3A4 Efficacy (in parenthesis): 9.16 ± 1.5 (-71 ± 2) %
[10]; [14]
  IC50: 2.43 µM
[11]; [15]
  IC50: 10.3 µM

## CCN(CCCc1ccccc1)CCCc1ccccc1 [Alverine citrate]
[1]
  AC50: 0.87 µM
[1]; CYP2D6 IC50
  IC50: 0.87 µM
[2]
  AC50: 9.92 µM
[2]; CYP1A2 IC50
  IC50: 9.92 µM
[3]
  CYP2C9 IC50: Inactive
[4]
  Luciferase IC50: Inactive
[6]
  AC50: 14.4 µM
[9]
  CYP3A4 IC50: 14.43 ± 1.84 (65 ± 11) µM
[11]
  AC50: 7.04 µM
[11]; CYP2C19 IC50
  IC50: 7.04 µM

## Clc1ccc(C2(Cn3cncn3)OCCO2)c(Cl)c1 [Azaconazole]
[1]; [12]
  IC50: 65.8 µM
[2]; [13]
  IC50: 33.1 µM
[3]; human
  CYP2C9 Efficacy (in parenthesis): 15.38 ± 2.12 (-103 ± 8) %
[4]
  Luciferase IC50 (half-maximal inhibitory concentration): Inactive
[5]
  CYP1A2 Efficacy (in parenthesis): 33.14 ± 4.22 (-89 ± 9) %
[6]
  IC50: 0.48 µM
[7]
  CYP2D6 Efficacy (in parenthesis): 65.83 ± 4.46 (-77 ± 14) %
[8]
  CYP2C19 Efficacy (in parenthesis): 2.14 ± 0.96 (-148 ± 8) %
[9]
  CYP3A4 Efficacy (in parenthesis): 0.48 ± 0.03 (-62 ± 7) %
[10]; [14]
  IC50: 15.4 µM
[11]; [15]
  IC50: 2.14 µM

## CCOP(=S)(OCC)SCn1nnc2ccccc2c1=O [Azinphos-ethyl]
[1]
  IC50: 35.6 µM
[2]; [13]
  IC50: 28.6 µM
[3]; human
  CYP2C9 Efficacy (in parenthesis): 0.57 ± 0.11 (-97 ± 0) %
[4]
  Luciferase IC50 (half-maximal inhibitory concentration): Inactive
[5]
  CYP1A2 Efficacy (in parenthesis): 28.65 ± 6 (-88 ± 5) %
[6]
  IC50: 1.87 µM
[7]
  CYP2D6 Efficacy (in parenthesis): 35.57 ± 0 (-87 ± 6) %
[8]
  CYP2C19 Efficacy (in parenthesis): 0.32 ± 0.06 (-141 ± 5) %
[9]
  CYP3A4 Efficacy (in parenthesis): 1.87 ± 0.34 (-77 ± 3) %
[10]
  IC50: 0.57 µM
[11]; [15]
  IC50: 0.32 µM

## C=CCOC(=O)C(C)(C)OC(=O)c1cc(-n2c(=O)cc(C(F)(F)F)n(C)c2=O)ccc1Cl [Butafenacil]
[1]; [12]
  IC50: 27 µM
[2]; [13]
  IC50: 35.1 µM
[3]; human
  CYP2C9 Efficacy (in parenthesis): 23.68 ± 7.01 (-109 ± 17) %
[4]
  Luciferase IC50 (half-maximal inhibitory concentration): Inactive
[5]
  CYP1A2 Efficacy (in parenthesis): 35.06 ± 4.03 (-48 ± 4) %
[6]
  IC50: 0.51 µM
[7]
  CYP2D6 Efficacy (in parenthesis): 26.96 ± 4.59 (-70 ± 7) %
[8]
  CYP2C19 Efficacy (in parenthesis): 50.02 ± 19.28 (-89 ± 23) %
[9]
  CYP3A4 Efficacy (in parenthesis): 0.51 ± 0.14 (-90 ± 4) %
[10]; [14]
  IC50: 23.7 µM
[11]; [15]
  IC50: 50 µM

## O=S(=O)(Oc1ccc(Cl)cc1)c1ccc(Cl)cc1 [Chlorfenson]
[1]; [12]
  IC50: 21.6 µM
[2]; [13]
  IC50: 3.21 µM
[3]; human
  CYP2C9 Efficacy (in parenthesis): 18.81 ± 7.04 (-92 ± 16) %
[4]
  Luciferase IC50 (half-maximal inhibitory concentration): Inactive
[5]
  CYP1A2 Efficacy (in parenthesis): 3.21 ± 1.48 (-95 ± 14) %
[6]
  IC50: 6.8 µM
[7]
  CYP2D6 Efficacy (in parenthesis): 21.56 ± 9.06 (-95 ± 15) %
[8]
  CYP2C19 Efficacy (in parenthesis): 0.14 ± 0.02 (-95 ± 43) %
[9]
  CYP3A4 Efficacy (in parenthesis): 6.8 ± 1.64 (41 ± 6) %
[10]; [14]
  IC50: 18.8 µM
[11]; [15]
  IC50: 0.14 µM

## CCOC(=O)C(O)(c1ccc(Cl)cc1)c1ccc(Cl)cc1 [Chlorobenzilate]
[1]
  IC50: 46.2 µM
[2]
  AC50: 44.5 µM
[2]; [13]
  IC50: 44.5 µM
[4]
  Luciferase IC50 (half-maximal inhibitory concentration): Inactive
[6]
  AC50: 9.23 µM
[7]
  CYP2D6 AC50 (half-maximal activity concentration): Inconclusive inhibitor
[9]
  CYP3A4 IC50 (half-maximal inhibitory concentration): 9.23 ± 2.97 (118 ± 20) µM
[10]
  IC50: 7.68 µM
  AC50: 7.68 µM
[11]
  AC50: 0.39 µM
[11]; [15]
  IC50: 0.39 µM

## N#Cc1c(Cl)c(Cl)c(Cl)c(C#N)c1Cl [Chlorothalonil]
[1]; [12]
  IC50: 34.9 µM
[2]; [13]
  IC50: 1.03 µM
[3]; human
  CYP2C9 Efficacy (in parenthesis): 6.61 ± 1.87 (-85 ± 10) %
[4]
  Luciferase IC50 (half-maximal inhibitory concentration): Inactive
[5]
  CYP1A2 Efficacy (in parenthesis): 1.03 ± 0.19 (-97 ± 4) %
[6]
  IC50: 1.11 µM
[7]
  CYP2D6 Efficacy (in parenthesis): 34.91 ± 0 (-58 ± 3) %
[8]
  CYP2C19 Efficacy (in parenthesis): 38.42 ± 34.42 (-114 ± 10) %
[9]
  CYP3A4 Efficacy (in parenthesis): 1.11 ± 0.13 (-78 ± 2) %
[10]; [14]
  IC50: 6.61 µM
[11]; [15]
  IC50: 38.4 µM

## CC(C1CC1)C(O)(Cn1cncn1)c1ccc(Cl)cc1 (stereo not shown) [Cyproconazole]
[1]; [12]
  IC50: 38.3 µM
[2]; [13]
  IC50: 30.4 µM
[3]; human
  CYP2C9 Efficacy (in parenthesis): 0.13 ± 0.04 (-105 ± 6) %
[4]
  Luciferase IC50 (half-maximal inhibitory concentration): Inactive
[5]
  CYP1A2 Efficacy (in parenthesis): 30.37 ± 9.95 (-33 ± 2) %
[6]
  IC50: 0.97 µM
[7]
  CYP2D6 Efficacy (in parenthesis): 38.25 ± 2.49 (-72 ± 6) %
[8]
  CYP2C19 Efficacy (in parenthesis): 0.3 ± 0.07 (-141 ± 28) %
[9]
  CYP3A4 Efficacy (in parenthesis): 0.97 ± 0.57 (-70 ± 7) %
[10]; [14]
  IC50: 0.13 µM
[11]; [15]
  IC50: 0.3 µM

## CCC1COC(Cn2cncn2)(c2ccc(Cl)cc2Cl)O1 (stereo not shown) [Etaconazole]
[1]; [12]
  IC50: 45.4 µM
[2]; [13]
  IC50: 31.9 µM
[3]; human
  CYP2C9 Efficacy (in parenthesis): 5.71 ± 1.07 (-109 ± 6) %
[4]
  Luciferase IC50 (half-maximal inhibitory concentration): Inactive
[5]
  CYP1A2 Efficacy (in parenthesis): 31.85 ± 3.66 (-69 ± 5) %
[6]
  IC50: 0.1 µM
[7]
  CYP2D6 Efficacy (in parenthesis): 45.4 ± 9.51 (-42 ± 2) %
[8]
  CYP2C19 Efficacy (in parenthesis): 0.32 ± 0.04 (-137 ± 10) %
[9]
  CYP3A4 Efficacy (in parenthesis): 0.1 ± 0.01 (-79 ± 1) %
[10]; [14]
  IC50: 5.71 µM
[11]; [15]
  IC50: 0.32 µM

## COP(=S)(OC)Oc1ccc(S(=O)(=O)N(C)C)cc1 [Famphur]
[1]
  IC50: 35.6 µM
[2]; [13]
  IC50: 35.7 µM
[3]; human
  CYP2C9 Efficacy (in parenthesis): 0.4 ± 0.05 (-109 ± 5) %
[4]
  Luciferase IC50 (half-maximal inhibitory concentration): Inactive
[5]
  CYP1A2 Efficacy (in parenthesis): 35.73 ± 4.11 (-67 ± 14) %
[6]
  IC50: 9.06 µM
[7]
  CYP2D6 Efficacy (in parenthesis): 35.57 ± 0 (-59 ± 2) %
[8]
  CYP2C19 Efficacy (in parenthesis): 0.09 ± 0.01 (-137 ± 1) %
[9]
  CYP3A4 Efficacy (in parenthesis): 9.06 ± 1.9 (-86 ± 7) %
[10]
  IC50: 0.4 µM
[11]; [15]
  IC50: 0.09 µM

## O=C1C(Cl)C(CCl)CN1c1cccc(C(F)(F)F)c1 (stereo not shown) [Flurochloridone]
[1]
  AC50: 35.9 µM
[1]; [12]
  IC50: 35.9 µM
[2]
  AC50: 1.04 µM
[2]; [13]
  IC50: 1.04 µM
[3]; human
  CYP2C9 IC50 (half-maximal inhibitory concentration): 7.82 ± 1.95 (82 ± 14) µM
[4]
  Luciferase IC50 (half-maximal inhibitory concentration): Inactive
[6]
  IC50: 6.98 µM
[9]
  CYP3A4 Efficacy (in parenthesis): 6.98 ± 2.77 (42 ± 7) %
[10]
  AC50: 7.82 µM
[11]
  AC50: 12.3 µM
[11]; [15]
  IC50: 12.3 µM

## CCCCN1CCCC[C@H]1C(=O)Nc1c(C)cccc1C [Levobupivacaine hydrochloride]
[1]; [12]
  IC50: 0.57 µM
[2]; [13]
  IC50: 17.4 µM
[3]
  CYP2C9 IC50 (half-maximal inhibitory concentration): Inactive
[4]
  Luciferase IC50 (half-maximal inhibitory concentration): Inactive
[5]
  CYP1A2 Efficacy (in parenthesis): 17.38 ± 0 (-62 ± 5) %
[6]
  IC50: 9.59 µM
[7]
  CYP2D6 Efficacy (in parenthesis): 0.57 ± 0.04 (-109 ± 3) %
[8]
  CYP2C19 IC50 (half-maximal inhibitory concentration): Inactive
[9]
  CYP3A4 Efficacy (in parenthesis): 9.59 ± 2.39 (-54 ± 7) %

## ClC(c1ccccc1)(c1ccccc1)c1ccccc1 [Trityl chloride]
[1]; [12]
  IC50: 62.1 µM
[2]; [13]
  IC50: 75.3 µM
[4]
  Luciferase IC50 (half-maximal inhibitory concentration): Inactive
[5]
  CYP1A2 AC50 (half-maximal activity concentration): Inconclusive inhibitor
[6]
  AC50: 6.9 µM
[7]
  CYP2D6 AC50 (half-maximal activity concentration): Inconclusive inhibitor
[9]
  CYP3A4 IC50 (half-maximal inhibitory concentration): 6.9 ± 1.18 (56 ± 3) µM
[10]
  AC50: 1.48 µM
[10]; [14]
  IC50: 1.48 µM
[11]
  AC50: 0.26 µM
[11]; [15]
  IC50: 0.26 µM
